Laboratory results from patent publication US20240253023A1, “PERFLUORINATED AMIDE SALTS AND THEIR USES AS IONIC CONDUCTING MATERIALS” (priority 1996, published 2024).
Where a name gives a salt, the structure may show the parent alone.

Legend:
[1] = solubility in organic solvents and polymers; details: for solubility in organic solvents: organic solvents (tetrahydrofurane, acetonitrile, dimethylformamide, ethyl acetate, glymes ...), mostly also in aprotic solvating or polar polymers
[2] = ionic conductivity of salts and polyelectrolytes in polymer, liquid, gel or molten media; format: physicochemical
[3] = oxidation potential towards a lithium anode; format: physicochemical
[4] = acid form; cited from earlier work
[5] = cationic transport number of electrolytes; format: physicochemical; details: in poly (ethylene oxide)
[6] = reversible redox potential in poly (ethylene oxide) on a platinum electrode, towards a lithium electrode; format: physicochemical; details: platinum electrode 125 μm
Method: These salts have a reversible redox couple. In poly (ethylene oxide) a reversible potential≈3.4 V towards a lithium electrode was determined on a platinum electrode having a diameter of 125 μm.
This salt has two reversible redox couples. In poly (ethylene oxide), on a platinum electrode of a diameter of 125 μm, it was shown that there is a first redox couple having a potential≈3.2 V and a second redox couple having a potential≈3.8 V, these potentials being measured towards a lithium electrode.

[7] = in poly (ethylene oxide), O/Li 12/1, 60° C.

In the case of CCCCC(CC)CN(CC(CC)CCCC)S(=O)(=O)[N-]S(=O)(=O)C(F)(F)F.CCN1C(=CC=CC=CC=Cc2sc3ccccc3[n+]2CC)Sc2ccccc21 [3,3′-diethylthiatricarbocyanine of di-2-ethylhexylaminosulfonyl(trifluoro-methanesulfonyl)imide], the “solubility in low polar solvents” value ([1]; dichloromethane or methylene chloride, polymer matrices with low polarity such as methyl polymethacrylate) is reported as “very soluble in low polar solvents”.

For O=S(=O)(CC(F)(F)F)[N-]S(=O)(=O)C(F)(F)F.[Li+] [Example 9, lithium salt of trifluoromethanesulfonyl(2,2,2-trifluoroethane-sulfonyl) imide], the conductivity [2, 7] was 2.3×10^−4 S·cm^−1.

In the case of CN(C)S(=O)(=O)[N-]S(=O)(=O)C(F)(F)F.CN(C)S(=O)(=O)[N-]S(=O)(=O)C(F)(F)F.CN(C)S(=O)(=O)[N-]S(=O)(=O)C(F)(F)F.[La+3] [Example 30, lanthanum salt of trifluoromethanesulfonyl(dimethylaminosulfonyl)-imide], the “solubility in organic solvents” value [1] is reported as “highly soluble in the usual organic solvents”.

With O=S(=O)(Nc1nnc(C(F)(F)F)s1)C(F)(F)F [Example 34, trifluoromethanesulfonyl(5-trifluoromethyl-1,3,4 thiadiazole)amide] the “solubility in organic solvents” value [1] was “soluble in most usual organic solvents” and the oxidation potential ([3]; 1 M in ethylene carbonate and dimethylcarbonate (2:1)) was “higher than 4 V”.

In the case of O=S(=O)([N-]S(=O)(=O)C(F)(F)F)c1nnc(C(F)(F)F)s1.[Li+] [Example 35, lithium salt of trifluoromethanesulfonyl(5-trifluoromethyl-1,3,4-thiadiazole-5-sulfonyl)imide], the “solubility in organic solvents” value [1] is reported as “soluble in most usual organic solvents” and the oxidation potential ([3]; 0.5 M in acetonitrile) is reported as “higher than 4.5 V”.

For O=S(=O)(NS(=O)(=O)C(F)(F)F)OC(C(F)(F)F)C(F)(F)F [Example 37 molten salt, trifluoromethanesulfonyl(1,1,1,3,3,3-hexafluoro-2-propanoxysulfonyl)imide 1-ethyl-3-methyl-1H-imidazolium], the conductivity ([2]; neat molten salt, temperature not stated) was 3.91×10^−3 S·cm^−1.

With CN(C)c1cccc2c(S(=O)(=O)[N-]S(=O)(=O)C(F)(F)F)cccc12.[K+] [Example 53, potassium trifluoromethane-sulfonyl(5-dimethylamino-1-naphthalenesulfonyl)imide] the “solubility in organic solvents” value [1] was “soluble in most polar organic solvents”.

With O=S(=O)(CCc1c2ccccc2cc2ccccc12)[N-]S(=O)(=O)C(F)(F)F.[K+] [Example 56, potassium salt of trifluoromethanesulfonyl(anthracenyl-9-ethanesulfonyl)imide] the “solubility in organic solvents” value [1] was “soluble in most usual organic solvents”.

In the case of O=S(=O)(NS(=O)(=O)C(F)(F)F)C(F)(F)F [H[CF3SO2—N—SO2CF3]], the pKa [4] is given as 1.95.

In the case of CCN(CC)S(=O)(=O)[N-]S(=O)(=O)C(F)(F)F.CCN(CC)S(=O)(=O)[N-]S(=O)(=O)C(F)(F)F.CCN(CC)S(=O)(=O)[N-]S(=O)(=O)C(F)(F)F.[Yb+3] [Yb(DETFSI)3, ytterbium salt of diethylaminosulfonyl(trifluoromethanesulfonyl)imide], the solubility in dichloromethane ([1]; dichloromethane) is reported as “good solubility in dichloromethane”.

With CCCN(CCC)S(=O)(=O)[N-]S(=O)(=O)C(F)(F)F.[Li+] [lithium salt of trifluoromethanesulfonyl(dipropylaminosulfonyl)-imide] the cationic transport number ([5]; O/Li=12/1) was 0.42 and the conductivity ([2]; in poly (ethylene oxide), O/Li=12/1, temperature not stated) was 1.4×10^−4 S·cm^−1.

For CCCCCCCCCCCCS(=O)(=O)[N-]S(=O)(=O)C(F)(F)F.[Li+] [lithium salt of trifluoromethanesulfonyl(dodecylsulfonyl)imide], the cationic transport number ([5]; O/Li=16/1) was “about 0.55”.

In the case of CN(C)S(=O)(=O)[N-]S(=O)(=O)C(F)(F)F.[Li+] [lithium salt of trifluoromethanesulfonyl-(dimethylaminosulfonyl)imide], the conductivity [2, 7] is reported as 1.2×10^−4 S·cm^−1.

With CN(C)S(=O)(=O)[N-]S(=O)(=O)C(F)(F)F.[K+] [potassium salt of trifluoromethanesulfonyl-(dimethylaminosulfonyl)irnide] the conductivity ([2]; in poly (ethylene oxide), O/K=12/1, 60° C.) was 5.10^−4 S·cm^−1.

For “N-trifluoromethanesulfonyl-2-aminoacridine tetraethylammonium [Example 54]”, the “solubility in organic solvents” value [1] was “soluble in most usual organic solvents”.

For “di-lithium salt of 9-10-(propylsulfonamide-N-trifluoromethanesulfonyl)phenazine [Example 61]”, the “potential of first redox couple” value [6] was “≈ 3.2 V” and the “potential of second redox couple” value [6] was “≈ 3.8 V”.

In the case of “potassium salt of N,N′,N″,N′″-perfluorobutanesulfonyl-Nickel(II) phtalocyaninetetrasulfonamide [Example 57]”, the “solubility in organic solvents” value [1] is reported as “soluble in most usual organic solvents”.
